Test results published in patent US20240376097A1, “BCL-2 Inhibitor” (BeiGene Ltd., priority 2020, published 2024).

Assays:
[1] = test system: RS4;11 (BCL-2 dependent acute lymphoblastic leukemia cell line); test: RS4;11 Cell Proliferation Assay; format: cell-based; details: Homo sapiens, RS4-11, RS4;11 cells, read-out: Cellular proliferation assay (IC50, nM) RS4
How it was run: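 Viability measured via CellTiter-Glo luminescence after a 48 h, 37 °C exposure to compounds (10 points, highest 1 μM). Seeding was 50,000 RS4;11 cells per well in 10% FBS RPMI-1640; IC50 given as mean.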

[2] = target: Recombinant human Bcl-2 protein (Homo sapiens (Human), UniProt P10415); test: Bcl-2 TR-FRET Assay; format: binding; details: Bcl-2 wild type, TR-FRET; read-out: Biochemical assay (IC50, nM) Bcl-2 WT
How it was run: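 TR-FRET read (337 nm excitation, 520/490 nm emission) after 1 h with 0.5 nM FITC-labeled Bak peptide and Tb-cryptate anti-6His antibody. Bcl-2 at 0.05 nM had been pre-incubated 0.5 h with compound. IC50 fitted by four-parameter logistic equation.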

[3] = test system: BCL-2 G101V knock-in cell line H96 (derive from RS4;11); test: Bcl 2-G101V Knock-In RS4;11 Cell Proliferation Assay; format: cell-based; details: Homo sapiens, RS4;11 Bcl-2 G101V knock-in clone H96, 48 hrs, CellTiter-GLO, read-out: Cellular proliferation assay (IC50, nM) RS4
How it was run: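 CellTiter-Glo luminescence after 48 h, 37 °C compound treatment (10 concentrations, maximum 1 μM or 10 μM) gave mean IC50 values. Cells were 50,000 per well of H96, a BCL2-G101V knock-in single clone derived from RS4;11 by Cas9 editing.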

[4] = test system: recombinant human Bcl-2-G101V protein; test: Bcl-2-G101V TR-FRET Assay; format: binding; details: ratio of biochemical IC50 Bcl-2 G101V / Bcl-2 WT
How it was run: (§1)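 Compounds were titrated at increasing concentrations against the Bcl-2-G101V–ligand interaction. TR-FRET signals were then read (ex 337 nm; em 490/520 nm). Percent inhibition was derived from the 490-to-520 nm ratio, and IC50 from a four-parameter logistic equation.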

[5] = target: recombinant human Bcl-2-G101V protein (Homo sapiens (Human), UniProt P10415, G101V); test: Bcl-2-G101V TR-FRET Assay; format: binding; details: Bcl-2 G101V mutant, TR-FRET; read-out: Biochemical assay (IC50, nM) Bcl-2 G101V
How it was run: as §1

SMILES | IC50 [1] | IC50 [2] | IC50 [3] | Ratio of Bcl-2 G101V/WT [4] | IC50 [5]
COc1ccc(CN2CCN(C3CC4(CCN(c5ccc(C(=O)NS(=O)(=O)c6ccc(NC[C@H]7CC[C@](C)(O)CC7)c([N+](=O)[O-])c6)c(Oc6cnc7[nH]ccc7c6)c5)CC4)C3)C(c3ccccc3C(C)C)C2)cc1OC(F)(F)F (stereo partly drawn) [Example 163, 2-((1H-pyrrolo[2,3-b]pyridin-5-yl)oxy)-N-((4-((((1r,4r)-4-hydroxy-4-methylcyclohexyl)methyl)amino)-3-nitrophenyl)sulfonyl)-4-(2-(2-(2-isopropylphenyl)-4-(4-methoxy-3-(trifluoromethoxy)benzyl)piperazin-1-yl)-7-azaspiro[3.5]nonan-7-yl)benzamide] | 1.08 nM | 1.3 nM | 9.2 nM | 4.3 | 5.5 nM
CC(C)c1ccccc1C1CN(Cc2ccc3c(c2)OC(F)(F)O3)CCN1C1CC2(CCN(c3ccc(C(=O)NS(=O)(=O)c4ccc(NC[C@H]5CC[C@](C)(O)CC5)c([N+](=O)[O-])c4)c(Oc4cnc5[nH]ccc5c4)c3)CC2)C1 (stereo partly drawn) [Example 168, 2-((1H-pyrrolo[2,3-b]pyridin-5-yl)oxy)-4-(2-(4-((2,2-difluorobenzo[d] [1,3]dioxol-5-yl)methyl)-2-(2-isopropylphenyl)piperazin-1-yl)-7-azaspiro[3.5]nonan-7-yl)-N-((4-((((1r,4r)-4-hydroxy-4-methylcyclohexyl)methyl)amino)-3-nitrophenyl)sulfonyl)benzamide] | 0.48 nM | 0.79 nM | 1.68 nM | 5.9 | 4.6 nM
COc1ccc(CN2CCN(C3CC4(CCN(c5ccc(C(=O)NS(=O)(=O)c6ccc(NC[C@H]7CC[C@](C)(O)CC7)c([N+](=O)[O-])c6)c(Oc6cnc7[nH]ccc7c6)c5)CC4)C3)C(c3ccccc3C(C)C)C2)cc1OC(F)F (stereo partly drawn) [Example 169, 2-((1H-pyrrolo[2,3-b]pyridin-5-yl)oxy)-4-(2-(4-(3-(difluoromethoxy)-4-methoxybenzyl)-2-(2-isopropylphenyl)piperazin-1-yl)-7-azaspiro[3.5]nonan-7-yl)-N-((4-((((1r,4r)-4-hydroxy-4-methylcyclohexyl)methyl)amino)-3-nitrophenyl)sulfonyl)benzamide] | 0.49 nM | 0.62 nM | 1.5 nM | 3.9 | 2.4 nM
CC(C)c1ccccc1C1CN(Cc2ccc(OC3CC3)cc2)CCN1C1CC2(CCN(c3ccc(C(=O)NS(=O)(=O)c4ccc(NC[C@H]5CC[C@](C)(O)CC5)c([N+](=O)[O-])c4)c(Oc4cnc5[nH]ccc5c4)c3)CC2)C1 (stereo partly drawn) [Example 172, 2-((1H-pyrrolo[2,3-b]pyridin-5-yl)oxy)-4-(2-(4-(4-cyclopropoxybenzyl)-2-(2-isopropylphenyl)piperazin-1-yl)-7-azaspiro[3.5]nonan-7-yl)-N-((4-((((1r,4r)-4-hydroxy-4-methylcyclohexyl)methyl)amino)-3-nitrophenyl)sulfonyl)benzamide] | 0.43 nM | 0.35 nM | 1.64 nM | 5.5 | 1.9 nM
COc1ccc(CN2CCN(C3CC4(C3)CN(c3ccc(C(=O)NS(=O)(=O)c5ccc(NCC6CCOCC6)c([N+](=O)[O-])c5)c(Oc5cnc6[nH]ccc6c5)c3)C4)[C@H](c3ccccc3C(C)C)C2)cc1OC [Example 173, (R)-2-((1H-pyrrolo[2,3-b]pyridin-5-yl)oxy)-4-(6-(4-(3,4-dimethoxybenzyl)-2-(2-isopropylphenyl)piperazin-1-yl)-2-azaspiro[3.3]heptan-2-yl)-N-((3-nitro-4-(((tetrahydro-2H-pyran-4-yl)methyl)amino)phenyl)sulfonyl) benzamide] | 0.18 nM | 0.017 nM | 0.6 nM | 6.5 | 0.11 nM
[2H]C([2H])([2H])Oc1ccc(CN2CCN(C3CC4(CCN(c5ccc(C(=O)NS(=O)(=O)c6ccc(NC[C@H]7CC[C@](C)(O)CC7)c([N+](=O)[O-])c6)c(Oc6cnc7[nH]ccc7c6)c5)CC4)C3)C(c3ccccc3C(C)C)C2)cc1OC([2H])([2H])[2H] (stereo partly drawn) [Example 175, 2-((1H-pyrrolo[2,3-b]pyridin-5-yl)oxy)-4-(2-(4-(3,4-bis(methoxy-d3)benzyl)-2-(2-isopropylphenyl)piperazin-1-yl)-7-azaspiro[3.5]nonan-7-yl)-N-((4-((((1r,4r)-4-hydroxy-4-methylcyclohexyl)methyl)amino)-3-nitrophenyl)sulfonyl)benzamide] | 0.33 nM | 0.041 nM | 1 nM | 7.0 | 0.29 nM
CC(C)c1ccccc1C1CN(Cc2cccc(OC3CC3)c2)CCN1C1CC2(CCN(c3ccc(C(=O)NS(=O)(=O)c4ccc(NC[C@H]5CC[C@](C)(O)CC5)c([N+](=O)[O-])c4)c(Oc4cnc5[nH]ccc5c4)c3)CC2)C1 (stereo partly drawn) [Example 178, 2-((1H-pyrrolo[2,3-b]pyridin-5-yl)oxy)-4-(2-(4-(3-cyclopropoxybenzyl)-2-(2-isopropylphenyl)piperazin-1-yl)-7-azaspiro[3.5]nonan-7-yl)-N-((4-((((1r,4r)-4-hydroxy-4-methylcyclohexyl)methyl)amino)-3-nitrophenyl)sulfonyl)benzamide] | 0.64 nM | 0.52 nM | 4.87 nM | 2.9 | 1.5 nM
COc1ccc(CN2CCN(C3CC4(C3)CN(c3ccc(C(=O)NS(=O)(=O)c5ccc(NCC6CCOCC6)c([N+](=O)[O-])c5)c(Oc5cnc6[nH]cc(F)c6c5)c3)C4)[C@H](c3ccccc3C(C)C)C2)cc1 [Example 183, (R)-2-((3-fluoro-1H-pyrrolo[2,3-b]pyridin-5-yl)oxy)-4-(6-(2-(2-isopropylphenyl)-4-(4-methoxybenzyl)piperazin-1-yl)-2-azaspiro[3.3]heptan-2-yl)-N-((3-nitro-4-(((tetrahydro-2H-pyran-4-yl)methyl)amino)phenyl)sulfonyl) benzamide] | 0.1 nM | 0.096 nM | 0.52 nM | 1.8 | 0.18 nM
COc1ccc(CN2CCN(C3CC4(CCN(c5ccc(C(=O)NS(=O)(=O)c6ccc(NC[C@H]7CC[C@](C)(O)CC7)c([N+](=O)[O-])c6)c(Oc6cnc7[nH]ccc7c6)c5)CC4)C3)C(c3ccccc3C(C)C)C2)cc1OC1CC1 (stereo partly drawn) [Example 186, 2-((1H-pyrrolo[2,3-b]pyridin-5-yl)oxy)-4-(2-(4-(3-cyclopropoxy-4-methoxybenzyl)-2-(2-isopropylphenyl)piperazin-1-yl)-7-azaspiro[3.5]nonan-7-yl)-N-((4-((((1r,4r)-4-hydroxy-4-methylcyclohexyl)methyl)amino)-3-nitrophenyl)sulfonyl)benzamide] | 0.53 nM | 0.15 nM | 2.5 nM | 4.2 | 0.64 nM
COc1ccc(CN2CCN(C3CC4(CCN(c5ccc(C(=O)NS(=O)(=O)c6ccc(NCC7CCOCC7)c([N+](=O)[O-])c6)c(Oc6cnc7[nH]cc(F)c7c6)c5)CC4)C3)[C@H](c3ccccc3C(C)C)C2)cc1OC [Example 191, (R)-4-(2-(4-(3,4-dimethoxybenzyl)-2-(2-isopropylphenyl)piperazin-1-yl)-7-azaspiro[3.5]nonan-7-yl)-2-((3-fluoro-1H-pyrolo[2,3-b]pyridin-5-yl)oxy)-N-((3-nitro-4-(((tetrahydro-2H-pyran-4-yl)methyl)amino)phenyl)sulfonyl) benzamide] | 0.15 nM | 0.061 nM | 0.52 nM | 3.3 | 0.2 nM
[2H]C([2H])(c1ccc(OC)c(OC)c1)N1CCN(C2CC3(CCN(c4ccc(C(=O)NS(=O)(=O)c5ccc(NC[C@H]6CC[C@](C)(O)CC6)c([N+](=O)[O-])c5)c(Oc5cnc6[nH]ccc6c5)c4)CC3)C2)C(c2ccccc2C(C)C)C1 (stereo partly drawn) [Example 193] | 0.26 nM | 0.068 nM | 0.8 nM | 3.4 | 0.23 nM
CC(C)c1ccccc1C1CN(Cc2cccc3c2N(C)CCO3)CCN1C1CC2(CCN(c3ccc(C(=O)NS(=O)(=O)c4ccc(NC[C@H]5CC[C@](C)(O)CC5)c([N+](=O)[O-])c4)c(Oc4cnc5[nH]ccc5c4)c3)CC2)C1 (stereo partly drawn) [Example 200, 2-((1H-pyrrolo[2,3-b]pyridin-5-yl)oxy)-N-((4-((((1r,4r)-4-hydroxy-4-methylcyclohexyl)methyl)amino)-3-nitrophenyl)sulfonyl)-4-(2-(2-(2-isopropylphenyl)-4-((4-methyl-3,4-dihydro-2H-benzo[b][1,4]oxazin-5-yl)methyl)piperazin-1-yl)-7-azaspiro[3.5]nonan-7-yl) benzamide] | 0.27 nM | 0.24 nM | 1.6 nM | 4.2 | 1.02 nM
